For one molecule, Activity results are on record in ChEMBL document CHEMBL1139202, “Inhibition of mycobacterial arylamine N-acetyltransferase contributes to anti-mycobacterial activity of Warburgia salutaris” (Bioorg Med Chem, 2007).

This assay concerns Mycobacterium tuberculosis. The assay is described as follows: Antimycobacterial activity against wild type Mycobacterium bovis BCG after 21 days. The class given is functional, organism-based. As to conditions: variant bovis BCG.

Turning to `CC(=O)O[C@@H]1C=C2C(=O)O[C@@H](O)[C@]2(O)[C@@]2(C)CCCC(C)(C)[C@H]12`, the Activity entry is “Dose-dependent effect”.
